Results reported in US7642269B2, “Pyrrolo[3,2-B]pyridine derivatives and processes for the preparation thereof” (Yuhan Corporation, priority 2005, dated 2010).
pIC50: −log10 of the molar value. Where a name gives a salt, the structure may show the parent alone.

Assays:
H^+/K^+-ATPase = molecular target: T1, H^+/K^+-ATPase (Sus scrofa, UniProt P19156); assay: Inhibitory effects on proton pump (H^+/K^+-ATPase) activity, hog gastric vesicles; type: biochemical; conditions: K^+ stimulated H^+/K^+-ATPase activity, hog gastric vesicle, Pi measured at 620 nm
T1 construct: used as an enzyme source of the in vitro enzyme reaction assay of proton pump; from tissue; host or cells: hog gastric fundic mucosa (membrane vesicles, lyophilized)
T1 sequence (P19156 2-1034 limits assumed): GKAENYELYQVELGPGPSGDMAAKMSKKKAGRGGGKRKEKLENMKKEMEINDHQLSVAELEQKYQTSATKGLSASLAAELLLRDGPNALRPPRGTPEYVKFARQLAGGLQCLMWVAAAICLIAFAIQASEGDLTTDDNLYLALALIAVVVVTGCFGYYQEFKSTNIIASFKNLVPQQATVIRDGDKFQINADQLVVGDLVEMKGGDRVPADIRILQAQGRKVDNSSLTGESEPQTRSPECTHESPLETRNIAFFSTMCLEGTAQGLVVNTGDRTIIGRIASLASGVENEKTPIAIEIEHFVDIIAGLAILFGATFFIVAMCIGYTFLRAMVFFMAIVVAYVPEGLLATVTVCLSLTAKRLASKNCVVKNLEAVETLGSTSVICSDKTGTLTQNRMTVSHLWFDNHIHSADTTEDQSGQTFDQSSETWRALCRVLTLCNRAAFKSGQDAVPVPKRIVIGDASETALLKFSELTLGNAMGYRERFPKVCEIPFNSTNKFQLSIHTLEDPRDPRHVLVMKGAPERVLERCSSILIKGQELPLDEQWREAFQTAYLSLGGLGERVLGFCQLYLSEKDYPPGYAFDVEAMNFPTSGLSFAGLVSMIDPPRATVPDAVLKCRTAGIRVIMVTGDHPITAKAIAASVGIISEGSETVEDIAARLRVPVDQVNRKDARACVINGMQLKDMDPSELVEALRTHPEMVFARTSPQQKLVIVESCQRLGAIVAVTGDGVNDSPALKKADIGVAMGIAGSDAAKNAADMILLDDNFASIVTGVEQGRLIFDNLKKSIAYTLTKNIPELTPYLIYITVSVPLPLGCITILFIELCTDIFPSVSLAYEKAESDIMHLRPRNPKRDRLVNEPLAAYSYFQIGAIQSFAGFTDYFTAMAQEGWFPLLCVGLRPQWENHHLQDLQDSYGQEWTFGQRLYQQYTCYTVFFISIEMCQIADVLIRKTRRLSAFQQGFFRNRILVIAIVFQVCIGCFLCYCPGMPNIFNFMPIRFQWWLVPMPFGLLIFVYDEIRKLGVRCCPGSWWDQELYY
T1 sequence (P18434 whole entry partner): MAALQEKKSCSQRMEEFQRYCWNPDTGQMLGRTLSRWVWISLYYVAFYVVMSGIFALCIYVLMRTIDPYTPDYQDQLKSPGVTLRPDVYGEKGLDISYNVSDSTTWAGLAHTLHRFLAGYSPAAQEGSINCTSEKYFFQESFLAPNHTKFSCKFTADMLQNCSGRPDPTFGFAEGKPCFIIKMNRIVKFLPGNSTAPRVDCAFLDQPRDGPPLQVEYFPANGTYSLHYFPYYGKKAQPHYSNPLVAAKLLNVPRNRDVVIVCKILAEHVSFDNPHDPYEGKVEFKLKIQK
How it was run: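 Lyophilized hog gastric vesicles in Pipes/Tris pH 6.1 were preincubated 5 min with compounds (1% DMSO), then run with ATP for 30 min at 37 °C. Released phosphate was measured by malachite green at 620 nm; K^+-stimulated activity taken as the difference between reactions with and without K^+.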

[1] = system: basal gastric acid secretion; assay: Inhibitory effects on basal gastric acid secretion in pylorus-ligated rats (Shay's rat model); type: in vivo, Sprague Dawley (SD) rats; conditions: oral, one hour before pylorus ligation, total acid output 5 hours after ligation, male SD rats
Method: Inhibitory effects of the compounds of the present invention on basal gastric acid secretion were performed according to Shay's rat model (Shay, H., et al., 1945, gastroenterology, 5, 43-61). Male Sprague Dawley (SD) rats (200±10 g body weight) were divided into 3 groups (n=5) and fasted for 24 hours with free access to water. Control group was orally administered with 0.5% methylcellulose alone and the other groups were orally administered with test compounds suspended in 0.5% methyl-cellulose solution at doses of 1, 3 and 10 mg/kg/5 ml one hour before pylorus ligation. Under ether anesthesia, the abdomens of the rats were incised and then the pylorus was ligated. 5 hours after ligation, the animals were sacrificed, and the gastric contents were collected. The collected contents were centrifuged at 1,000×g for 10 minutes to obtain the gastric juice. Total acid output was measured by 0.01N NaOH volume (ueq/ml) for automatic titration of the gastric juice to pH 7.0 and the ED50s of test compounds were calculated using the Litchfield-Wilcoxon method. % inhibitory activity was calculated from the following equation and the results are shown in Table 2. % inhibitory activity of test compound=(total acid output of control group−total acid output of the group treated with test compounds)/total acid output of control group X 100

| Structure (SMILES) | pIC50 (H^+/K^+-ATPase) | ED50 [1] [mg/kg] |
| --- | --- | --- |
| COCCn1c(C)c(C)c2nccc(OCc3ccc(Cl)cc3)c21.Cl [Example 86, 7-(4-chlorobenzyloxy)-1-(2-methoxyethyl)-2,3-dimethyl-1H-pyrrolo[3,2-b]pyridine hydrochloride] | 7.30 | 1.1 |
| CCCn1c(C)c(C)c2nccc(OCc3ccc(F)cc3)c21.Cl [Example 62, 7-(4-fluorobenzyloxy)-2,3-dimethyl-1-propyl-1H-pyrrolo[3,2-b]pyridine hydrochloride] | 6.96 | 1.6 |
| Cc1c(C)n(Cc2ccccc2)c2c(OCc3ccc(Cl)cc3)ccnc12.Cl [Example 73, 1-benzyl-7-(4-chlorobenzyloxy)-2,3-dimethyl-1H-pyrrolo[3,2-b]pyridine hydrochloride] | 7.40 | 2.5 |
| Cc1c(C)n(CC2CCC2)c2c(OCc3ccc(F)cc3)ccnc12.Cl [Example 55, 1-cyclobutylmethyl-7-(4-fluorobenzyloxy)-2,3-dimethyl-1H-pyrrolo[3,2-b]pyridine hydrochloride] | 7.15 | 1.3 |
| COCCn1c(C)c(C)c2nccc(OCc3ccc(F)cc3)c21.Cl [Example 61, 7-(4-fluorobenzyloxy)-1-(2-methoxyethyl)-2,3-dimethyl-1H-pyrrolo[3,2-b]pyridine hydrochloride] | 7.00 | 3 |
| COc1cccc(Cn2c(C)c(C)c3nccc(OCc4ccc(Cl)cc4Cl)c32)c1 [Example 141, 7-(2,4-dichlorobenzyloxy)-1-(3-methoxybenzyl)-2,3-dimethyl-1H-pyrrolo[3,2-b]pyridine hydrochloride] | 7.05 | – |
| COCn1c(C)c(C)c2nccc(OCc3ccc(Cl)cc3)c21 [Example 74, 7-(4-chlorobenzyloxy)-1-methoxymethyl-2,3-dimethyl-1H-pyrrolo[3,2-b]pyridine hydrochloride] | 5.97 | – |
| COC(=O)Cn1c(C)c(C)c2nccc(OCc3ccc(Cl)cc3Cl)c21 [Example 138, 7-(2,4-dichlorobenzyloxy)-1-methoxycarbonylmethyl-2,3-dimethyl-1H-pyrrolo[3,2-b]pyridine hydrochloride] | 6.34 | – |
| Cc1c(C)n(CC2OCCO2)c2c(OCc3ccc(F)cc3)ccnc12 [Example 39, 1-(1,3-dioxolan-2-ylmethyl)-7-(4-fluorobenzyloxy)-2,3-dimethyl-1H-pyrrolo[3,2-b]pyridine hydrochloride] | 6.66 | – |
| CCn1c(C)c(C)c2nccc(OCc3cccc(C)c3)c21 [Example 145, 1-ethyl-2,3-dimethyl-7-(3-methylbenzyloxy)-1H-pyrrolo[3,2-b]pyridine hydrochloride] | 6.28 | – |
| Cc1cccc(COc2ccnc3c(C)c(C)n(Cc4cccc(F)c4)c23)c1 [Example 146, 1-(3-fluorobenzyl)-2,3-dimethyl-7-(3-methylbenzyloxy)-1H-pyrrolo[3,2-b]pyridine hydrochloride] | 5.50 | – |
| COc1cccc(Cn2c(C)c(C)c3nccc(OCc4ccc5c(c4)OCO5)c32)c1 [Example 119, 7-(benzo[1,3]dioxol-5-ylmethoxy)-1-(3-methoxybenzyl)-2,3-dimethyl-1H-pyrrolo[3,2-b]pyridine hydrochloride] | 6.64 | – |
| COCCn1c(C)c(C)c2nccc(OCc3ccc(F)cc3)c21 [Example 131, 7-(4-fluorobenzyloxy)-1-(2-methoxyethyl)-2,3-dimethyl-1H-pyrrolo[3,2-b]pyridine camphosulfonate] | 7.22 | – |
| C=CCn1c(C)c(C)c2nccc(OCc3cccc(C)c3)c21 [Example 155, 1-allyl-2,3-dimethyl-7-(3-methylbenzyloxy)-1H-pyrrolo[3,2-b]pyridine hydrochloride] | 6.24 | – |
| C=CCn1c(C)c(C)c2nccc(NCc3ccc(F)cc3)c21 [Example 254, N-(1-allyl-2,3-dimethyl-1H-pyrrolo[3,2-b]pyridin-7-yl)-4-fluorobenzylamine hydrochloride] | 6.68 | – |
| CCCn1c(C)c(C)c2nccc(NCc3ccc(F)cc3)c21 [Example 260, N-(2,3-dimethyl-1-propyl-1H-pyrrolo[3,2-b]pyridin-7-yl)-4-fluorobenzylamine hydrochloride] | 5.92 | – |

Further molecules by rising pIC50 (H^+/K^+-ATPase), results first:

| pIC50 (H^+/K^+-ATPase) | Structure (SMILES) | ED50 [1] [mg/kg] |
| --- | --- | --- |
| 5.90 | Cc1nc2c(C)c(C)n(Cc3ccccc3)c2c(NCc2ccc(F)cc2)c1C [Example 268, N-(1-benzyl-2,3,5,6-tetramethyl-1H-pyrrolo[3,2-b]pyridin-7-yl)-4-fluorobenzylamine hydrochloride] | – |
| 6.17 | Cc1c(C)n(Cc2ccccc2)c2c(OCc3cc(F)cc(F)c3)ccnc12 [Example 195, 1-benzyl-7-(3,5-difluorobenzyloxy)-2,3-dimethyl-1H-pyrrolo[3,2-b]pyridine hydrochloride] | – |
| 6.17 | COc1cccc(Cn2c(C)c(C)c3nccc(OCc4ccc(C(F)(F)F)cc4)c32)c1 [Example 201, 1-(3-methoxybenzyl)-2,3-dimethyl-7-(4-trifluoromethylbenzyloxy)-1H-pyrrolo[3,2-b]pyridine hydrochloride] | – |
| 6.34 | Cc1c(C)n(Cc2ccc(F)cc2)c2c(OCc3ccc(Cl)cc3)ccnc12 [Example 91, 7-(4-chlorobenzyloxy)-1-(4-fluorobenzyl)-2,3-dimethyl-1H-pyrrolo[3,2-b]pyridine hydrochloride] | – |
| 6.41 | CC(C)=CCn1c(C)c(C)c2nccc(OCc3ccc(Cl)cc3)c21 [Example 84, 7-(4-chlorobenzyloxy)-2,3-dimethyl-1-(3-methylbut-2-enyl)-1H-pyrrolo[3,2-b]pyridine hydrochloride] | – |
| 6.47 | Cc1c(C)n(Cc2ccccc2F)c2c(OCc3ccc(Cl)cc3)ccnc12 [Example 89, 7-(4-chlorobenzyloxy)-1-(2-fluorobenzyl)-2,3-dimethyl-1H-pyrrolo[3,2-b]pyridine hydrochloride] | – |
| 6.74 | Cc1c(C)n(Cc2ccc(F)cc2)c2c(OCc3ccc(Br)cc3)ccnc12 [Example 221, 7-(4-bromobenzyloxy)-1-(4-fluorobenzyl)-2,3-dimethyl-1H-pyrrolo[3,2-b]pyridine hydrochloride] | – |
| 6.89 | Cc1c(C)n(Cc2ccccc2)c2c(OCc3ccc4c(c3)OCO4)ccnc12 [Example 115, 7-(benzo[1,3]dioxol-5-ylmethoxy)-1-benzyl-2,3-dimethyl-1H-pyrrolo[3,2-b]pyridine hydrochloride] | – |
| 7.05 | Cc1c(C)n(CC2CC2)c2c(OCc3ccc(Cl)cc3)ccnc12.Cl [Example 97, 7-(4-chlorobenzyloxy)-1-cyclopropylmethyl-2,3-dimethyl-1H-pyrrolo[3,2-b]pyridine hydrochloride] | 2 |
| 7.15 | CCCn1c(C)c(C)c2nccc(OCc3ccc(Br)cc3)c21 [Example 229, 7-(4-bromobenzyloxy)-2,3-dimethyl-1-propyl-1H-pyrrolo[3,2-b]pyridine hydrochloride] | – |
| 7.30 | Cc1c(C)n(Cc2ccccc2)c2c(OCc3ccc(Cl)cc3Cl)ccnc12 [Example 136, 1-benzyl-7-(2,4-dichlorobenzyloxy)-2,3-dimethyl-1H-pyrrolo[3,2-b]pyridine hydrochloride] | – |
| 7.52 | C=CCn1c(C)c(C)c2nccc(OCc3ccc(Cl)cc3)c21.Cl [Example 72, 1-allyl-7-(4-chlorobenzyloxy)-2,3-dimethyl-1H-pyrrolo[3,2-b]pyridine hydrochloride] | 2 |
| 7.70 | Cc1c(C)n(CC2CC2)c2c(OCc3ccc(Cl)cc3Cl)ccnc12.Cl [Example 139, 1-cyclopropylmethyl-7-(2,4-dichlorobenzyloxy)-2,3-dimethyl-1H-pyrrolo[3,2-b]pyridine hydrochloride] | 1.6 |
